From patent US10568947B2, “Treatment of cancer using a CLL-1 chimeric antigen receptor” (Novartis AG, priority 2014, dated 2020) come the findings set out here.

In one data set the test system is primary AML blasts. Put plainly: chemotherapy followed by CLL1-CART cells in primary AML xenografts. The conditions noted are these: two weeks after cytarabine 60 mg/kg i.p. daily days 35-39. It is filed as in vivo, NSG-S mice.
In the next data set the test system is Nalm-6. Kind of data set: huCART19 proliferation in co-culture with RAD001. Type of data set: cell-based, human. To be noted: 4 day co-culture with Nalm-6; 0.0032 and 0.016 nM RAD001. The text has this:
A humanized, anti-human CD19 CAR (huCART19) lentiviral transfer vector was used to produce the genomic material packaged into VSVg pseudotyped lentiviral particles. The amino acid and nucleotide sequence of the humanized anti-human CD19 CAR (huCART19) is CAR 1, ID 104875 described in PCT publication, WO2014/153270, filed Mar. 15, 2014, and is designated SEQ ID NOs. 85 and 31 therein.
Lentiviral transfer vector DNA is mixed with the three packaging components VSVg env, gag/pol and rev in combination with lipofectamine reagent to transfect Lenti-X 293T cells. Medium is changed after 24 h and 30 h thereafter, the virus-containing media is collected, filtered and stored at −80° C. CARTs are generated by transduction of fresh or frozen naïve T cells obtained by negative magnetic selection of healthy donor blood or leukopak. […] The percentage of cells transduced (expressing the CARs on the cell surface) and the level of CAR expression (relative fluorescence intensity, Geo Mean) are determined by flow cytometric analysis between days 7 and 9. […]
To evaluate the functionality of CARTs, the T cells are thawed and counted, and viability is assessed by Cellometer. […]
For measuring the proliferation of CARTs, T cells are cultured with target cells at a ratio of 1:1. […] The number of T cells is assessed by flow cytometry using counting beads as reference.

Data set [1] in a line: in vivo proliferation of huCAR19 CAR T cells with RAD001. To be noted: NALM6-luc NSG mice, daily oral RAD001, lowest doses (0.003 mg/kg). The protocol:
(§1) NALM6-luc cells were grown and expanded in vitro in RPMI supplemented with 10% heat inactivated fetal bovine serum. The cells were then transferred to a 15 ml conical tube and washed twice with cold sterile PBS. NALM6-luc cells were then counted and resuspended at a concentration of 10×10^6 cells per milliliter of PBS. The cells were placed on ice and immediately (within one hour) implanted in the mice. NALM6-luc cells were injected intravenously via the tail vein in a 100 μl volume, for a total of 1×10^6 cells per mouse.
Mice were administered 5×10^6 CAR T cells 7 days after tumor implantation. Cells were partially thawed in a 37 degree Celsius water bath and then completely thawed by the addition of 1 ml of cold sterile PBS to the tube containing the cells. The thawed cells were transferred to a 15 ml falcon tube and adjusted to a final volume of 10 mls with PBS. The cells were washed twice at 1000 rpm for 10 minutes each time and then counted on a hemocytometer. T cells were then resuspended at a concentration of 50×10^6 CAR T cells per ml of cold PBS and kept on ice until the mice were dosed. […]
Based on these doses, huCAR19 CAR T cells were dosed with and without RAD001 to determine the proliferative ability of these cells. […] Mice were monitored via FACS for T cell expansion.

Data set [2] is described as follows: RAD001 pharmacokinetics in blood of tumor bearing mice. It is filed as in vivo, NSG mice. The protocol: (§2) A concentrated micro-emulsion of 50 mg equal to 1 mg RAD001 was formulated and then resuspended in D5W (dextrose 5% in water) at the time of dosing. Mice were orally dosed daily (via oral gavage) with 200 μl of the desired doses of RAD001.
Mice were dosed daily with RAD001 starting 7 days post tumor implantation. Dosing groups were as follows: 0.3 mg/kg, 1 mg/kg, 3 mg/kg, and 10 mg/kg. Mice were bled on days 0 and 14 following the first and last dose of RAD001, at the following time points for PK analysis: 15 minutes, 30 minutes, 1 hour, 2 hours, 4 hours, 8 hours, 12 hours, and 24 hours.

The test system of the next data set is NALM6-luc tumors. Kind of data set: NALM6-luc tumor growth with daily RAD001 dosing. Type of data set: in vivo, NSG mice. The conditions noted are these: daily oral RAD001 alone, 0.3, 1, 3, 10 mg/kg. The method, then: The NALM6 human acute lymphoblastic leukemia (ALL) cell line was developed from the peripheral blood of a patient with relapsed ALL. The cells were then tagged with firefly luciferase. These suspension cells grow in RPMI supplemented with 10% heat inactivated fetal bovine serum.
6 week old NSG (NOD.Cg-Prkdc^scidIl2rg^tm1Wjl/SzJ) mice were received from the Jackson Laboratory (stock number 005557).
as §1, §2

Entries after “also recorded” stand apart in the source; their conditions may differ. Some results are limits rather than exact numbers.

Experimental for primary AML blasts: NSG mice that are additionally transgenic for stem cell factor, GM-CSF and IL-3 (NSG-S) were injected with primary AML blasts (3×10^6 via tail vain injection, day 0). After 4-6 weeks, peripheral blood (PB) was collected to confirm engraftment, which was defined as the presence of >1% circulating leukemic cells (live human CD45dim cells). AML xenografts were then treated with cytarabine (Ara-C, 60 mg/kg by intra-peritoneal injection, daily between days 35-39). Peripheral blood counts were monitored and then these xenografts were randomized to receive CLL1 directed CART cells or control untransduced T cells (1×10^5 I.V.) on day 55. Following that, serial retro-orbital bleedings were performed and absolute leukemic blast count was calculated as a measure of disease burden and the xenografts were followed up for survival.

As to `Nc1ccn([C@@H]2O[C@H](CO)[C@@H](O)[C@@H]2O)c(=O)n1` [cytarabine], the “mean fluorescence intensity (MFI) of CLL1 in leukemic cells (live huCD45dim)” value in the data set with primary AML blasts was “significant increase”.

With `CO[C@H]1C[C@@H]2CC[C@@H](C)[C@@](O)(O2)C(=O)C(=O)N2CCCC[C@H]2C(=O)O[C@H]([C@H](C)C[C@@H]2CC[C@@H](OCCO)[C@H](OC)C2)CC(=O)[C@H](C)/C=C(\C)[C@@H](O)[C@@H](OC)C(=O)[C@H](C)C[C@H](C)/C=C/C=C/C=C/1C` [RAD001, (1R,9S,12S,15R,16E,18R,19R,21R,23S,24E,26E,28E,30S,32S,35R)-1,18-dihydroxy-12-{(1R)-2-[(1S,3R,4R)-4-(2-hydroxyethoxy)-3-methoxycyclohexyl]-1-methylethyl}-19,30-dimethoxy-15,17,21,23,29,35-hexamethyl-11,36-dioxa-4-aza-tricyclo[30.3.1.04,9]hexatriaconta-16,24,26,28-tetraene-2,3,10,14,20-pentaone], the “proliferation of huCART19 with RAD001 versus without” value with Nalm-6 is listed as “proliferation was higher than observed without the addition of RAD001”. Besides, the “proliferation of huCAR19 CAR T cells in vivo” value in data set [1] is “enhanced proliferation; also recorded: enhancement in CAR T cell proliferation”. In addition, in data set [2] (24 hours after the final dose), the “concentration of RAD001 (blood)” value is listed as “above 10 nM”. Further, the concentration at 24 h in data set [2] (NSG, mouse, blood, oral, 24 hours after dosing, lowest dose 0.3 mg/kg, day 0 and day 14, read-out: RAD001 concentrations in the blood) was above 10 nM. In data set [2] (daily oral dosing, day 0 and day 14 PK), the “stability in the blood of tumor bearing mice” value is recorded as “fairly stable”. Moreover, the “growth of NALM6-luc tumors” value with NALM6-luc tumors was “did not have an impact”.
